Test results reported in patent US12187759B2, “TLR7 agonists” (Primmune Therapeutics, Inc., priority 2019, dated 2025).
Each block holds one compound with its values, some of them ahead of it.

What was measured:
human TLR7 = molecular target: T1, human TLR7 (Homo sapiens, UniProt Q9NYK1); assay: TLR7 reporter cell assay (HEK293 cells stably expressing human TLR7 with NF-κB-driven SEAP reporter); assay type: cell-based; conditions: 15-24 hours; for Emax at 500 µM: HEK293, 500 μM compound, SEAP activity (OD 650 nm) relative to 28.5 μM resiquimod, read-out: Response at 500 μM Compound as a Percent of Resiquimod Response; for EC50: fit of SEAP dose response, ymax from 28.5 μM resiquimod
T1 construct: host or cells: HEK293
T1 sequence (Q9NYK1 27-1049): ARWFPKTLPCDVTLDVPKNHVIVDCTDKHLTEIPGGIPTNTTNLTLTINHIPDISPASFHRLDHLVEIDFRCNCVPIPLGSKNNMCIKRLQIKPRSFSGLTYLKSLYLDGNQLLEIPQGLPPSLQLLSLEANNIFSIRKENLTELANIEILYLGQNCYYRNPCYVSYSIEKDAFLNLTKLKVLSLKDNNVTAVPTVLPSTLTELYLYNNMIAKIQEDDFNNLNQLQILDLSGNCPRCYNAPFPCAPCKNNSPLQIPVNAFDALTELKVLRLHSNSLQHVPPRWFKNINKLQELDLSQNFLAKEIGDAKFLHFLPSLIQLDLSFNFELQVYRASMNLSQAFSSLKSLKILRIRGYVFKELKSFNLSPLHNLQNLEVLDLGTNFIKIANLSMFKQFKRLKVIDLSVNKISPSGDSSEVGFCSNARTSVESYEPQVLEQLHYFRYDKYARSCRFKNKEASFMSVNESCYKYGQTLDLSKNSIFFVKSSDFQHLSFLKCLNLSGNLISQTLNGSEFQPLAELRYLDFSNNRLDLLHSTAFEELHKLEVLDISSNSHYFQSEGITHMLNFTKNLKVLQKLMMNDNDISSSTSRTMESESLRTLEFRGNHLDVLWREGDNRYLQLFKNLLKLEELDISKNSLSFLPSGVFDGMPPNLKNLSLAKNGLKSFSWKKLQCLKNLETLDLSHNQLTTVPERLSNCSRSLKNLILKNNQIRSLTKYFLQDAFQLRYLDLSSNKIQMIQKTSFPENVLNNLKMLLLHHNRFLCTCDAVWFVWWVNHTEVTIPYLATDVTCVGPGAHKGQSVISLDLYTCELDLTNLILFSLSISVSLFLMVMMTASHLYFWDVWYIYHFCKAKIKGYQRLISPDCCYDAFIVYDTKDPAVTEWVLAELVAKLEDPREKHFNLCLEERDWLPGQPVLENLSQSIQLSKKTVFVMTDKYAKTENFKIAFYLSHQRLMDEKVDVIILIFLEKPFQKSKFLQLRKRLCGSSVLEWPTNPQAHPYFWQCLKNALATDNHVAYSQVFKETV
Method in brief: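 HEK293 cells stably expressing human TLR7 with an NF-κB-driven SEAP reporter, treated with compound for 15-24 hours. SEAP read at OD 650 nm. EC50 fitted by nonlinear least squares, maximum set by 28.5 μM resiquimod.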

[1] = system: hPBMCs (Human Peripheral Blood Mononuclear Cells); assay: Induction of interferon-α in hPBMCs in vitro; assay type: cell-based; conditions: Homo sapiens, PBMC; for Emax: 24 h, peak IFNα2a as percentage of peak response of standard 2-Amino-7-(cyclopropylmethyl)-9-B-D-xylofuranosyl-7,9-dihydro-1H-purine-6,8-dione, averaged across donors, read-out: IFNrmax, Relative Maximal IFNα2a Production (%); for minimal effective concentration: minimal effective concentration for interferon-α production (generally at least 80 pg/ml above baseline), geometric mean across at least three donors, 24 hours, read-out: Weighted MEC
Method in brief: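 Peripheral blood mononuclear cells from healthy human donors were dispensed into replicate culture wells at 1.0-7.5×10^6 cells per well. They were exposed to test compound for 24 hours at 37° C. in humidified 5% CO2, with untreated wells as controls. Secreted interferon-α was quantified with a multisubtype ELISA or as IFNα2a in a luminex panel. MEC was defined as the lowest concentration giving a significant rise above baseline, generally at least 80 pg/ml. IFNmax was the highest IFN level seen at any tested concentration.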

Emax at 500 µM (human TLR7): 66%
EC50 (human TLR7): 185 µM
Structure (SMILES): C#CCn1c(=O)n([C@@H]2O[C@H]([C@@H](O)CSC)C[C@H]2O)c2nc(N)[nH]c(=O)c21 [Compound 45, 2-Amino-9-((2R,3R,5S)-3-hydroxy-5-((R)-1-hydroxy-2-(methylthio)ethyl)tetrahydrofuran-2-yl)-7-(prop-2-yn-1-yl)-7,9-dihydro-1H-purine-6,8-dione]
Emax [1]: 321%
minimal effective concentration [1]: 5 µM

Emax at 500 µM (human TLR7): 59%
EC50 (human TLR7): 269 µM
Structure (SMILES): CCCn1c(=O)n([C@@H]2O[C@H]([C@@H](O)CC)[C@H](F)[C@H]2O)c2nc(N)[nH]c(=O)c21 [Compound 26, 2-Amino-9-((2R,3S,4R,5R)-4-fluoro-3-hydroxy-5-((S)-1-hydroxypropyl)tetrahydrofuran-2-yl)-7-propyl-7,9-dihydro-1H-purine-6,8-dione]
Emax [1]: 304%
minimal effective concentration [1]: ≤ 1.6 µM

Emax at 500 µM (human TLR7): 58%
EC50 (human TLR7): 358 µM
Structure (SMILES): CC[C@H](O)[C@H]1O[C@@H](n2c(=O)n(CC3CC3)c3c(=O)[nH]c(N)nc32)[C@H](O)[C@H]1F [Compound 17, 2-Amino-7-(cyclopropylmethyl)-9-((2R,3S,4R,5R)-4-fluoro-3-hydroxy-5-((S)-1-hydroxypropyl)tetrahydrofuran-2-yl)-7,9-dihydro-1H-purine-6,8-dione]
Emax [1]: 185%
minimal effective concentration [1]: ≤ 3.1 µM

Emax at 500 µM (human TLR7): < 5%
Structure (SMILES): C#CCn1c(=O)n([C@@H]2O[C@H](C(=O)O)C[C@H]2O)c2nc(N)[nH]c(=O)c21 [Compound 40, (2S,4R,5R)-5-(2-Amino-6,8-dioxo-7-(prop-2-yn-1-yl)-1,6,7,8-tetrahydro-9H-purin-9-yl)-4-hydroxytetrahydrofuran-2-carboxylic acid]
Emax [1]: ≤ 10%
minimal effective concentration [1]: > 50 µM

Emax at 500 µM (human TLR7): < 5%
Structure (SMILES): C#CCn1c(=O)n([C@@H]2O[C@H]([C@@H](O)CO)C[C@H]2O)c2nc(N)[nH]c(=O)c21 [Compound 14, 2-Amino-9-((2R,3R,5S)-5-((S)-1,2-dihydroxyethyl)-3-hydroxytetrahydrofuran-2-yl)-7-(prop-2-yn-1-yl)-7,9-dihydro-1H-purine-6,8-dione]
Emax [1]: ≤ 10%
minimal effective concentration [1]: > 50 µM

The next lines start with the compound.

Structure (SMILES): C#CCn1c(=O)n([C@@H]2O[C@H]([C@@H](O)CNC)C[C@H]2O)c2nc(N)[nH]c(=O)c21 [Compound 16, 2-Amino-9-((2R,3R,5S)-3-hydroxy-5-((S)-1-hydroxy-2-(methylamino)ethyl)tetrahydrofuran-2-yl)-7-(prop-2-yn-1-yl)-7,9-dihydro-1H-purine-6,8-dione]
Emax at 500 µM (human TLR7): < 5%
Emax [1]: ≤ 10%
minimal effective concentration [1]: > 50 µM

Structure (SMILES): CC[C@H](O)[C@H]1O[C@@H](n2c(=O)n(CC(F)(F)F)c3c(=O)[nH]c(N)nc32)[C@H](O)[C@H]1F [Compound 44, 2-Amino-9-((2R,3S,4R,5R)-4-fluoro-3-hydroxy-5-((S)-1-hydroxypropyl)tetrahydrofuran-2-yl)-7-(2,2,2-trifluoroethyl)-7,9-dihydro-1H-purine-6,8-dione]
Emax at 500 µM (human TLR7): 101%
EC50 (human TLR7): 86 µM
Emax [1]: 250%
minimal effective concentration [1]: 2 µM

Structure (SMILES): C#CCn1c(=O)n([C@@H]2O[C@H]([C@@H](O)CN)C[C@H]2O)c2nc(N)[nH]c(=O)c21 [Compound 15, 2-Amino-9-((2R,3R,5S)-5-((S)-2-amino-1-hydroxyethyl)-3-hydroxytetrahydrofuran-2-yl)-7-(prop-2-yn-1-yl)-7,9-dihydro-1H-purine-6,8-dione]
Emax at 500 µM (human TLR7): < 5%
Emax [1]: ≤ 10%
minimal effective concentration [1]: > 50 µM

Structure (SMILES): CC[C@H](O)[C@@H]1C[C@@H](O)[C@H](n2c(=O)n(C[C@@H](C)O)c3c(=O)[nH]c(N)nc32)O1 (single isomer, unassigned) [Compound 33]
Emax at 500 µM (human TLR7): 73%
EC50 (human TLR7): 287 µM
Emax [1]: 143%
minimal effective concentration [1]: 9.9 µM

Structure (SMILES): CC[C@H](O)[C@@H]1C[C@@H](O)[C@H](n2c(=O)n(CC(F)(F)F)c3c(=O)[nH]c(N)nc32)O1 [Compound 43, 2-Amino-9-((2R,3R,5S)-3-hydroxy-5-((S)-1-hydroxypropyl)tetrahydrofuran-2-yl)-7-(2,2,2-trifluoroethyl)-7,9-dihydro-1H-purine-6,8-dione]
Emax at 500 µM (human TLR7): 97%
EC50 (human TLR7): 55 µM
Emax [1]: 158%
minimal effective concentration [1]: 2.5 µM
